Results: patent US8822377B2, “Herbicidal compositions comprising topramezone and pinoxaden” (BASF SE, priority 2011, dated 2014)

Legend:
[1] = system: TRZAW (winter wheat) Cubus; test: Greenhouse post-emergence crop damage rating, winter wheat; details: topramezone 12 g a.i./ha, 0=no damage, 100=complete destruction
Description: (§1) The culture containers used were plastic pots containing loamy sand with approximately 3.0% of humus as substrate. The seeds of the test plants were sown separately for each species.
(§2) In all use examples, plants were grown in a greenhouse environment.
(§3) To this end, the test plants were either sown directly and grown in the same containers, or they were first grown separately as seedlings and transplanted into the test containers a few days prior to treatment.
(§4) Depending on the species, the plants were kept at 10-25° C. and 20-35° C., respectively. The test period extended over 1 to 4 weeks. During this time, the plants were tended and their response to the individual treatments was evaluated.
(§5) Topramezone was used as a commercial suspension concentrate (Clio® of BASF SE) having an active ingredient concentration of 336 g/l.
(§6) The evaluation for the damage caused by the chemical compositions was carried out using a scale from 0 to 100%, compared to the untreated control plants. Here, 0 means no damage and 100 means complete destruction of the plants.

TRZAS Taifun = test: Greenhouse post-emergence crop damage rating, wheat TRZAS; details: topramezone 12 g a.i./ha
Description: as §1, §2, §3, §4, §5, §6

[2] = system: HORVW (winter barley) Highlight; test: Greenhouse post-emergence crop damage rating, winter barley; details: topramezone 12 g a.i./ha
Description: as §1, §2, §3, §4, §5, §6

GALAP (cleaver) = test: Greenhouse post-emergence herbicidal activity against cleaver; type: in vivo; details: Galium aparine, 648 h, topramezone 12 g a.i./ha, read-out: Herbicidal activity (%) at 27 DAT Observed GALAP GS22
From the text: (§7) The test period extended over 1 to 4 weeks.
(§8) 22 ff. E=X+Y−(X·Y/100) where • X=effect in percent using herbicide A at an application rate a; • Y=effect in percent using pinoxaden (herbicide B) at application rate b or a combination of pinoxaden and safener C at application rates b and c; • E=expected effect (in %) of A+B at application rates a+b or of A+B+C at application rates a+b+c.
(§9) The value E corresponds to the effect (plant damage or injury) which is to be expected if the activity of the individual compounds is just additive. If the observed effect is higher than the value E calculated according to Colby, a synergistic effect is present.

VERPE (field speedwell) = test: Greenhouse post-emergence herbicidal activity against field speedwell; type: in vivo; details: Veronica persica, 648 h, topramezone 12 g a.i./ha, read-out: Herbicidal activity (%) at 27 DAT Observed VERPE GS22
From the text: as §7, §8, §9

SMILES: Cc1c(C(=O)c2cnn(C)c2O)ccc(S(C)(=O)=O)c1C1=NOCC1 [Topramezone, [3-(4,5-dihydro-1,2-oxazol-3-yl)-4-mesyl-o-tolyl](5-hydroxy-1-methylpyrazol-4-yl)methanone]
- Herbicidal activity (%) at 27 DAT TRZAW Cubus GS12 [1]: 20%
- Herbicidal activity (%) at 27 DAT TRZAS Taifun GS11 (TRZAS Taifun): 30%
- Herbicidal activity (%) at 27 DAT HORVW Highlight GS11 [2]: 20%
- inhibition at 12 g/ha (GALAP (cleaver)): 90%
- inhibition at 12 g/ha (VERPE (field speedwell)): 75%
